pIC50: −log10 of the molar value.
Test system: NCI-H322M multicellular tumor spheroids, viability (% test/control)
Test: Anticancer human tumor NCI-H322M cell line growth inhibition;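 as to viability, T/C: spheroids exposed to compound for seven days before readout; 100% = DMSO vehicle control wells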
Conditions: for pIC50: curve of first compound; for viability, T/C: stronger effect = lower value
Excerpt: Multicellular complex tumor spheroid response to DNA repair inhibitors in combination with DNA-damaging drugs
This study explores the anticancer activities of DNA-damaging drugs and inhibitors of DNA damage repair, both as single agents and in combinations. Complex tumor spheroids comprised of malignant cells, endothelial cells and mesenchymal stem cells served as an in vitro model for human solid tumors. This model system incorporates physiologically relevant features and patient-derived or established malignant cell lines with clinically relevant genetic alterations from many tumor types. Twenty-six patient-derived or established malignant cell lines were evaluated representing sarcoma, melanoma, small cell lung cancer (SCLC), non-small cell lung cancer (NSCLC), as well as bladder, ovarian and pancreatic cancers. The concentration ranges selected for each drug and investigational agent were based upon clinically achievable concentrations if the clinical Cmax of the agent was known.
Compounds. The drugs and compounds olaparib (NSC753686), talazoparib (NSC767125), berzosertib (NSC777718), elimusertib (NSC800525), nedisertib (NSC802822), VX-984 (NSC792969), AZD-1390 (NSC803789), temozolomide (NSC362856), topotecan (NSC609699), trabectedin (NSC813783), staurosporine (NSC755774), and gemcitabine (NSC613327) were obtained from the National Cancer Institute (NCI) Developmental Therapeutics Program Chemical Repository. The FDA-approved anticancer drug set is available from the Developmental Therapeutics Program at https://dtp.cancer.gov/organization/dscb/obtaining/available_plates.htm. […] The stock solutions were prepared in dimethyl sulfoxide (DMSO, Sigma-Aldrich, St. Louis, MO, cat. D2650) at 400-fold the tested concentration and stored at -70 degrees C. Prior to their use, the stock solutions were diluted in fresh medium and the final DMSO concentration in the assay was 0.25% (v/v). All drugs and investigational agents were tested over a range starting from a high concentration at or near the clinical Cmax and decreasing in half-log increments. If the clinical Cmax for an agent had not been determined, the highest concentration tested was 10 microM.
Cell Lines. The patient-derived cancer cell (PDC) lines: 156681-154-R-J1-PDC, 283228-195-R-J1-PDC, 287954-098-R-J1-PDC, 292921-168-R-J2-PDC, 349418-098-R-PDC, 425362-245-T-J1-PDC, 556581-035-R-J1-PDC, and BL0293-F563-PDC were received from the NCI Patient-Derived Models Repository (PDMR, https://pdmr.cancer.gov). The established cell lines HS-SY-2 (RRID:CVCL_8719), MPNST, and SYO-1 (RRID:CVCL_7146) were obtained from the Sloan Kettering Institute. The alveolar soft parts sarcoma cell line ASPS-1 (RRID:CVCL_S738) was established at the NCI and grown from internal seed stocks. The following established cell lines were purchased from the American Type Culture Collection (ATCC, Manassas, VA): G-401 (ATCC, cat. CRL-1441, RRID:CVCL_0270), SW982 (ATCC, cat. HTB-93, RRID:CVCL_1734), VA-ES-BJ (ATCC, cat. CRL-2138, RRID:CVCL_1785), NCI-H719 (ATCC, cat. CRL-5837, RRID:CVCL_1582), NCI-H196 (ATCC, cat. CRL-5823, RRID:CVCL_1509), NCI-H841 (ATCC, cat. CRL-5845, RRID:CVCL_1595), NCI-H1618 (ATCC, cat. CRL-5879, RRID:CVCL_1480), NCI-H1876 (ATCC, cat. CRL-5902, RRID:CVCL_1503), DMS 114 (ATCC, cat. CRL-2066; RRID:CVCL_1174), NCI-H211 (ATCC, cat. CRL-5824; RRID:CVCL_1529), and SW 1271 (ATCC, cat. CRL-2177, RRID:CVCL_1716). The small cell lung cancer cell line COR-L88 was purchased from Sigma-Aldrich (cat. 92031917-1VL, RRID:CVCL_1141). The non-small cell lung cancer cell lines NCI-H226 (RRID:CVCL_1544) and NCI-H322M (RRID:CVCL_1557) were established at the NCI and grown from internal seed stocks. Pooled donor human umbilical vein endothelial cells (HUVEC, Lonza, cat. CC-2519) and human mesenchymal stem cells (hMSC, Lonza, cat. PT-2501) were purchased from Lonza (Walkersville, MD).
Cell Culture. All cells were maintained in an incubator at 37 degrees C and 5% CO2 with 95% humidity. […]

[1] = second compound 0.003 µM, first compound 0.0316 µM
[2] = second compound 0.003 µM, first compound 0.1 µM
[3] = second compound 0.003 µM, first compound 0.316 µM
[4] = second compound 0.003 µM, first compound 1 µM
[5] = second compound 0.003 µM, first compound 3.16 µM
[6] = second compound 0.003 µM, first compound 10 µM
[7] = second compound 0.00949 µM, first compound 0.0316 µM
[8] = second compound 0.00949 µM, first compound 0.1 µM
[9] = second compound 0.00949 µM, first compound 0.316 µM
[10] = second compound 0.00949 µM, first compound 1 µM
[11] = second compound 0.00949 µM, first compound 3.16 µM
[12] = second compound 0.00949 µM, first compound 10 µM
[13] = second compound 0.03 µM, first compound 0.0316 µM
[14] = second compound 0.03 µM, first compound 0.1 µM
[15] = second compound 0.03 µM, first compound 0.316 µM
[16] = second compound 0.03 µM, first compound 1 µM
[17] = second compound 0.03 µM, first compound 3.16 µM
[18] = second compound 0.03 µM, first compound 10 µM
[19] = second compound 0.0949 µM, first compound 0.0316 µM
[20] = second compound 0.0949 µM, first compound 0.1 µM
[21] = second compound 0.0949 µM, first compound 0.316 µM
[22] = second compound 0.0949 µM, first compound 1 µM
[23] = second compound 0.0949 µM, first compound 3.16 µM
[24] = second compound 0.0949 µM, first compound 10 µM
[25] = second compound 0.3 µM, first compound 0.0316 µM
[26] = second compound 0.3 µM, first compound 0.1 µM
[27] = second compound 0.3 µM, first compound 0.316 µM
[28] = second compound 0.3 µM, first compound 1 µM
[29] = second compound 0.3 µM, first compound 3.16 µM
[30] = second compound 0.3 µM, first compound 10 µM

| SMILES | pIC50 (second compound 0.003 µM) | pIC50 (second compound 0.00949 µM) | pIC50 (second compound 0.03 µM) | pIC50 (second compound 0.0949 µM) | pIC50 (second compound 0.3 µM) | viability, T/C [1] | viability, T/C [2] | viability, T/C [3] | viability, T/C [4] | viability, T/C [5] | viability, T/C [6] | viability, T/C [7] | viability, T/C [8] | viability, T/C [9] | viability, T/C [10] | viability, T/C [11] | viability, T/C [12] | viability, T/C [13] | viability, T/C [14] | viability, T/C [15] | further results |
| --- | --- | --- | --- | --- | --- | --- | --- | --- | --- | --- | --- | --- | --- | --- | --- | --- | --- | --- | --- | --- | --- |
| CC1COCCN1c1cc(-c2ccnn2C)c2ccnc(-c3ccn[nH]3)c2n1 (stereo not given) + CC[C@@]1(O)C(=O)OCc2c1cc1n(c2=O)Cc2cc3c(CN(C)C)c(O)ccc3nc2-1 | > 7.50 | > 7.50 | > 7.50 | > 7.50 | > 7.50 | 55.8% | 40.6% | 35% | 32.3% | 30.8% | 38.3% | 51.6% | 39.1% | 35.5% | 32.6% | 32.9% | 34.5% | 43.8% | 32.6% | 30.8% | viability, T/C [16]: 30.4%; viability, T/C [17]: 32.1%; viability, T/C [18]: 35.9%; viability, T/C [19]: 33.6%; viability, T/C [20]: 28.1%; viability, T/C [21]: 26.6%; viability, T/C [22]: 26.9%; viability, T/C [23]: 28.1%; viability, T/C [24]: 29.9%; viability, T/C [25]: 23.1%; viability, T/C [26]: 18.9%; viability, T/C [27]: 19.8%; viability, T/C [28]: 23.6%; viability, T/C [29]: 20.1%; viability, T/C [30]: 27.7% |
| COc1cc(C)[nH]c(=O)c1CN1CCc2c(Cl)cc(C(OC)C3COC3)c(Cl)c2C1=O (stereo not given) + CC[C@@]1(O)C(=O)OCc2c1cc1n(c2=O)Cc2cc3c(CN(C)C)c(O)ccc3nc2-1 | < 5.00 | < 5.00 | < 5.00 | < 5.00 | 5.01 | 79.2% | 75.4% | 74.4% | 73.1% | 84.3% | 88% | 83.9% | 65.2% | 65.2% | 74% | 78.6% | 89.6% | 69% | 68.8% | 72.8% | viability, T/C [16]: 69.3%; viability, T/C [17]: 73.4%; viability, T/C [18]: 71.7%; viability, T/C [19]: 72%; viability, T/C [20]: 66.9%; viability, T/C [21]: 70.8%; viability, T/C [22]: 58.1%; viability, T/C [23]: 65.4%; viability, T/C [24]: 71.2%; viability, T/C [25]: 60.5%; viability, T/C [26]: 49.9%; viability, T/C [27]: 48.5%; viability, T/C [28]: 48.5%; viability, T/C [29]: 54.9%; viability, T/C [30]: 50.3% |
| Cc1cc(C)c(CNC(=O)c2cc(-c3ccc(CN4CCOCC4)cc3)cc3c2cnn3C2CCCC2)c(=O)[nH]1 + CC[C@@]1(O)C(=O)OCc2c1cc1n(c2=O)Cc2cc3c(CN(C)C)c(O)ccc3nc2-1 | < 5.00 | < 5.00 | < 5.00 | < 5.00 | < 5.00 | 89% | 82.3% | 83.7% | 86.5% | 81.2% | 112% | 76.4% | 80.6% | 86.2% | 81.6% | 79.9% | 105% | 77.3% | 84.9% | 77.3% | viability, T/C [16]: 76.7%; viability, T/C [17]: 84.8%; viability, T/C [18]: 101%; viability, T/C [19]: 64.5%; viability, T/C [20]: 61.5%; viability, T/C [21]: 56.1%; viability, T/C [22]: 71.7%; viability, T/C [23]: 71.5%; viability, T/C [24]: 82.2%; viability, T/C [25]: 54.7%; viability, T/C [26]: 49.3%; viability, T/C [27]: 52.5%; viability, T/C [28]: 51.5%; viability, T/C [29]: 48.2%; viability, T/C [30]: 59.5% |
| [2H]c1nc(C)nc([2H])c1-c1cc(NC[C@@H](C)c2cccc3c(C(=O)NC)ccnc23)ncn1 + CC[C@@]1(O)C(=O)OCc2c1cc1n(c2=O)Cc2cc3c(CN(C)C)c(O)ccc3nc2-1 | < 5.00 | < 5.00 | < 5.00 | < 5.00 | < 5.00 | 91.8% | 128% | 94.1% | 84.1% | 112% | 103% | 86.6% | 89.9% | 105% | 89.9% | 89.8% | 117% | 77.2% | 75.5% | 76.7% | viability, T/C [16]: 82.9%; viability, T/C [17]: 114%; viability, T/C [18]: 103%; viability, T/C [19]: 80.6%; viability, T/C [20]: 80.7%; viability, T/C [21]: 78.3%; viability, T/C [22]: 74.5%; viability, T/C [23]: 72.5%; viability, T/C [24]: 85.5%; viability, T/C [25]: 72.2%; viability, T/C [26]: 59%; viability, T/C [27]: 60.2%; viability, T/C [28]: 60.3%; viability, T/C [29]: 62.2%; viability, T/C [30]: 64.9% |

Reference: PubChem BioAssay AID1845211 (Molecular Pharmacology Branch, DTP, NCI, 2023)
